From ChEMBL document CHEMBL1131991, “Discovery of CP-199,330 and CP-199,331: two potent and orally efficacious cysteinyl LT1 receptor antagonists devoid of liver toxicity” (Bioorg Med Chem Lett, 1999) come the findings set out here.

pIC50, pKi: −log10 of the molar value.

Data set [1] concerns Cavia porcellus. Kind of data set: Compound was evaluated in vivo for antigen induced airway obstruction in guinea pig (OA) at 1.0 hour after oral administration. It is filed as functional.
Data set [2] concerns Cavia porcellus. As to the kind of experiment: Compound was evaluated in vivo for antigen induced airway obstruction in guinea pig (OA) at 2.0 hour after oral administration. It is filed as functional.
Data set [3] concerns Cavia porcellus. As to the kind of experiment: Compound was evaluated in vivo for cysLT1 receptor induced airway obstruction in guinea pig (OA) at 2.0 hour after oral administration. It is filed as functional.
Data set [4] has as its target T1, Cysteinyl leukotriene receptor 1 (Cavia porcellus, UniProt Q2NNR5).
T1 sequence (Q2NNR5 whole entry): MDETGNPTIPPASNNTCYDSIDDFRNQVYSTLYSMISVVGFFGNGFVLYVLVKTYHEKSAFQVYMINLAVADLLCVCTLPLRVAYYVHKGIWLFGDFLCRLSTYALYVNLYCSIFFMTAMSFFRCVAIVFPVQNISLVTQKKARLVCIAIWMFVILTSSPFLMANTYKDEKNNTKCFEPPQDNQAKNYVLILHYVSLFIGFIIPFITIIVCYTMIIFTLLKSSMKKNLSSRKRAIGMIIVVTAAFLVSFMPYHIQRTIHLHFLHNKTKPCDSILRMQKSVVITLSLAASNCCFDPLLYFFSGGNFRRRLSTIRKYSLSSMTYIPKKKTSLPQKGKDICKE
Kind of data set: In vitro binding of Cysteinyl leukotriene receptor 1 to guinea pig lung membranes. It is filed as tissue-based, Membrane.

Data set [5] in a line: Compound was evaluated for terminal half life in monkey. It is filed as ADME. The settings on record: cercopithecidae, in vivo.
The nature of data set [6]: Oral bioavailability in rat. It is filed as ADME, organism-based. Conditions: in vivo.
The nature of data set [7]: Oral bioavailability in monkey. It is filed as ADME, organism-based. The settings on record: cercopithecidae, in vivo.
For the next data set, the species on record is Rattus norvegicus. Kind of data set: Compound was evaluated for Hepatic clearance in rat. It is filed as ADME, organism-based, Liver. The settings on record: in vivo.
Another data set relates to U-937. Kind of data set: In vitro blocking of extracellular calcium mobilization in human U937 cells. It is filed as functional, cell-based.
A short description of data set [8]: Compound was evaluated for terminal half life in rat. It is filed as ADME, organism-based. The settings on record: in vivo.
Data set [9] in a line: Compound was evaluated for Hepatic clearance in monkey. Conditions: cercopithecidae, in vivo. It is filed as ADME, organism-based, Liver.
Data set [10] relates to Cavia porcellus. Kind of data set: Compound was evaluated in vivo for cysLT1 receptor induced airway obstruction in guinea pig (OA) at 1.0 hour after oral administration. It is filed as functional.
In data set [11] the test system is Cavia porcellus. Kind of data set: Compound was evaluated in vivo for cysLT1 receptor induced airway obstruction in guinea pig (OA) at 1.0 hour after oral administration. It is filed as functional.

The term ED50 denotes the dose at which the effect has come halfway, by size or by number of responders. On to `O=C(Nc1cccc2c(=O)cc(-c3nnn[nH]3)oc12)c1ccc(OCCCCc2ccccc2)cc1`, for which it took a dose of 1.5 mg/kg to reach the 50% effect level in the data set on Cavia porcellus [1] (ED50).
Turning to `COc1cc(C(=O)NS(=O)(=O)c2ccccc2C)ccc1Cc1cn(C)c2ccc(NC(=O)OC3CCCC3)cc12` [ZAFIRLUKAST], the ED50 stood at 0.9 mg/kg with Cavia porcellus [2] and 0.52 mg/kg with Cavia porcellus [3].
In general, pKi refers to −log10 of the Ki, conventionally taken in molar units. A word on the half-life: it is how long it takes for the measured level to halve. As a reminder, the bioavailability is dose-corrected exposure relative to a reference, in per cent. The pIC50 is −log10 of the IC50, conventionally taken in molar units. The compound `COc1ccc(NS(=O)(=O)C(F)(F)F)cc1C[C@@H]1COc2ccc(OCc3ccc4ccc(Cl)cc4n3)cc2[C@@H]1O` showed a pKi in data set [4] of 9.22. Also, the half-life in data set [5] was 2.1 h; in data set [8], 0.8 h. In addition, the bioavailability was 53% in data set [6] and 100% in data set [7]. The ED50 with Cavia porcellus [1] stood at 0.46 mg/kg; in the data set with Cavia porcellus [10], 0.12 mg/kg. In addition, the values for the Clp (in the data set listed under Rattus norvegicus; in data set [9]) were 8.9 mL/min/kg and 6.5 mL/min/kg, respectively. Moreover, the pIC50 in the data set on U-937 was 9.15.
Regarding `COc1ccc(NS(=O)(=O)C(F)(F)F)cc1C[C@@H]1COc2ccc(OCc3nc4cc(F)c(F)cc4s3)cc2[C@@H]1O`, the negative logarithm of the Ki (pKi) in data set [4] was 9.40. Also, the ED50 is 0.08 mg/kg in the data set on Cavia porcellus [11] and 0.52 mg/kg with Cavia porcellus [1]. The half-life in data set [5] was 9.4 h; in data set [8], 8.8 h. Besides, the bioavailability amounted to 46% in data set [6] and 72% in data set [7]. The Clp in the data set listed under Rattus norvegicus was determined as 8.3 mL/min/kg; in data set [9] it was 4.2 mL/min/kg. Also, the pIC50 with U-937 was 9.52.
